Laboratory results reported in patent US8506946B2, “Compositions and methods for attracting noctuid moths” (Cotton Incorporated, priority 2006, dated 2013).

How the values were obtained:
[1] = tested on: Heliothis virescens; assay: Field trap capture of Heliothis virescens with pheromone mixture with or without synergist (Tedders traps); format: in vivo
Procedure: An experiment was carried out near Monticello, Drew County in Arkansas to study the response of tobacco bud worm, Heliothis virescens to a pheromone synergist. The experiment was carried out in a habitat of cotton and soybean. β-caryophyllene was used as a synergist with a mixture of pheromones (Z,E)-9,12-tetradecadien-1-ol acetate and (Z)-9-tetradecen-1-ol acetate at the ratio of 7:3. Tedders traps were used in the experiment. Each pheromone trap was baited with the pheromone mixture and approximately 3-6 mg of 3-caryophyllene and each control trap was baited with the pheromone mixture. The control trap contained no β-caryophyllene or other synergists. The pheromone mixture used in the experiment was LURETAPE® obtained from Hereon Environmental in Emigsville, Pa. The trapped adult insects of Heliothis virescens were collected on a daily basis and the total number of trapped insects was counted. Statistical analysis was done using the Least Squares means separation from the SAS GLM procedure.

[2] = tested on: Spodoptera exigua; assay: Field trap capture of Spodoptera exigua with (Z)-11-hexadecen-1-ol with or without synergist (Tedders traps); format: in vivo; conditions: approximately 3-6 mg β-caryophyllene added to (Z)-11-hexadecen-1-ol vs control trap with (Z)-11-hexadecen-1-ol only
Procedure: An experiment was carried out in three locations in Arkansas to study the response of beet army worm, Spodoptera exigua, in a cotton field to a pheromone synergist. The locations were near Fayetteville, Washington County, near Tillar, Drew County, and near Foreman, Little River County. β-caryophyllene was used as a synergist with (Z)-11-hexadecen-1-ol, a pheromone for Spodoptera exigua. Tedders traps were used in the experiment. Each pheromone trap was baited with (Z)-11-hexadecen-1-ol and approximately 3-6 mg of β-caryophyllene and each control trap was baited with (Z)-11-hexadecen-1-ol. The control trap contained no β-caryophyllene or other synergists. The trapped adult insects of Spodoptera exigua were collected on a daily basis and the total number of trapped insects was counted. Statistical analysis was done using the Least Squares means separation from the SAS GLM procedure.

## C=C1CC/C=C(\C)CC[C@@H]2[C@@H]1CC2(C)C [β-caryophyllene]
[1]; year 2004, approximately 3-6 mg β-caryophyllene added to pheromone mixture 7:3 (LURETAPE) vs control trap with pheromone mixture only, FIG. 2
  increase in the number of captured Heliothis virescens: ~147%
[1]; year 2005, approximately 3-6 mg β-caryophyllene added to pheromone mixture (Z,E)-9,12-tetradecadien-1-ol acetate and (Z)-9-tetradecen-1-ol acetate 7:3 (LURETAPE) vs control trap with pheromone mixture only, cotton and soybean habitat, Arkansas, FIG. 1
  increase in the number of captured Heliothis virescens: ~131%
[2]; year 2004, FIG. 4
  change in the number of captured Spodoptera exigua: ~−9%
[2]; year 2005, cotton field, three locations in Arkansas, FIG. 3
  increase in the number of captured Spodoptera exigua: ~69%
